Reference: patent US20250206754A1, “PAN-CHEMOKINE ANTAGONISTS FOR USE IN TREATING CANCER AND IMMUNE DISORDERS” ("Micar Innovation" LTD., priority 2022, published 2025)
Like-named read-outs stand apart in the source and are kept apart here.

Experiments:
CCR7 = molecular target: T1, CCR7 (Homo sapiens, UniProt P32248); experiment: Ca^2+ mobilization assay, CCR7; assay type: cell-based
T1 construct: expressed in transfected cells
T1 sequence (P32248 25-378): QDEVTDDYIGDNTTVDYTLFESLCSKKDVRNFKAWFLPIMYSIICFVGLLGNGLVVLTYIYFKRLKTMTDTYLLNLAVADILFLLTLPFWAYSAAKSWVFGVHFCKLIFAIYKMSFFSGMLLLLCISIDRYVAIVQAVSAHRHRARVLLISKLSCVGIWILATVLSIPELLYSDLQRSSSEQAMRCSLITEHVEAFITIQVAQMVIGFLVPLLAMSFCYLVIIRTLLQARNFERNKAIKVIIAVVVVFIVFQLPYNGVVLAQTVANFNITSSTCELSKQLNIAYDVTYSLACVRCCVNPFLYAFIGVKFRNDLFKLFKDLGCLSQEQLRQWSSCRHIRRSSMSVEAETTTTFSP
Protocol: Selected compounds were initially sent for both antagonist and agonist TANGO β-arrestin assays. […] Replacement only on the amide group with CN led to strong activity decrease in β-arrestin assay: only 31% activity at about 30 μM and similar one at 100 μM (Table 1). Five more derivatives with replaced amide group were also tested in parallel by Ca^2+ mobilization assay and they all were not active up to the tested concertation of 100 μM.
To examine the colloid aggregation possibility a β-lactamase enzymatic activity counterscreen assay was performed, which is the commonly adopted tool for detection of such properties of the compounds.

[1] = system: primary human keratinocytes; experiment: Cell viability in the keratinocyte inflammation models; assay type: cell-based; conditions: in the cytokine release models
4T-1-luc cells = assay type: in vivo; conditions: Day 15
IL17 release = experiment: Inhibition of IL17 release (inflammation model); conditions: Homo sapiens, read-out: EC50, IL17 release

In the case of `NC(=O)c1ccccc1Oc1ncnc2sc(-c3ccccc3)cc12` [Hit 1, 2-({6-phenylthieno[2,3-d]pyrimidin-4-yl}oxy)benzamide], the inhibition at 100 µM (CCR7; 100 μM concentration, read-out: Ca^2+ assay (100 μM), Percent of inhibition) is reported as 63%, the Kb (CCR7; CCR7) is reported as 2.8 µM and the “Hill slope” value (CCR7; Ca^2+ mobilization assay, CCR7) is reported as 2.6. The IC50 (CCR7; Ca^2+ mobilization assay, CCR7) was 92 µM, the “activity change with 0.01% Triton X-100” value (CCR7; Ca^2+ mobilization assay, CCR7 expressed cells, preliminary data) was “no activity change” and the IC50 (CCR7; similar Ca^2+ mobilization assay in an independent lab (data not shown)) was 25 to 30 µM. The cell viability [1] was “Some inhibition of the cell viability”, the “Animal bioluminescence imaging intensity, Mean” value (4T-1-luc cells; G2 5 mg/kg p.o. QD) was 1.69E+08 10^8 p/s and the “Animal bioluminescence imaging intensity, Mean” value (4T-1-luc cells; G3 30 mg/kg p.o. QD) was 1.09E+08 10^8 p/s. The EC50 (IL17 release) was 3.78 µM.
